Measured values taken from patent EP0416393A1, “Peptidyl difluorodiol renin inhibitors” (ABBOTT LABORATORIES, priority 1989, dated 1991).

Experiments:
human renal renin = target: T1, human renal renin (Homo sapiens, UniProt P00797); test: Inhibition of human renal renin with human angiotensinogen substrate; angiotensin I formed measured by radioimmunoassay; format: biochemical; conditions: 37 degrees C, pH 6.0; read-out: IC₅₀
T1 construct: human renal renin, free from acid proteolytic activity; from tissue; host or cells: human kidney (concluded from the word 'renal')
T1 sequence (P00797 67-406): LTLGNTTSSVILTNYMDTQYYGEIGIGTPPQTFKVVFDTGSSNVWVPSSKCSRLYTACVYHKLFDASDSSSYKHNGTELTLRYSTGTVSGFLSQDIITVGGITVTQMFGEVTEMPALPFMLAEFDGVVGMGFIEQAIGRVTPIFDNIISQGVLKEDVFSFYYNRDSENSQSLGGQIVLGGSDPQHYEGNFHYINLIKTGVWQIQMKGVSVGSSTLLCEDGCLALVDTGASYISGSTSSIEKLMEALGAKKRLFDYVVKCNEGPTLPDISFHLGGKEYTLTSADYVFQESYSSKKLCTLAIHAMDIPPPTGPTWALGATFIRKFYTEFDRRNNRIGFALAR
Method: At the end of the incubation, the amount of angiotensin I formed is measured by radioimmunoassay and the molar concentration required to cause 50% inhibition, expressed as the IC₅₀ is calculated. […]

[1] = tested on: male cynomolgus monkeys (M. fascicularis); test: In vivo intraduodenal activity: blood pressure in salt-depleted, anesthetized monkeys; conditions: 1.0 mg/kg intraduodenal
Method: Intraduodenal activity for the resultant compound from Example 105 was determined at 1.0 mg/kg in male cynomolgus monkeys (M. fascicularis) weighing between 3 and 5 kg. The monkeys were fed a low-salt chow and fresh fruit diet and treated twice with furosemide (5 mg/kg, po), 1 week and 1 day before the experiment. Following this regimen renders the monkeys in a salt-depleted state, characterized by normal base-line blood pressures but elevated plasma renin activities. The monkeys were fasted overnight and studied under anesthesia on the day of the experiment (sodium pentobarbitol, 15 mg/kg bolus + 0.10 mg/kg/min maintenance iv infusion). A femoral artery was catherterized for the direct and continuous measurement of blood pressure (Grass Pressure Transducer Model P23dB and Graph Polygraph Model 7). The compound was tested for intraduodenal activity via a catheter placed directly into the proximal segment of the duodenum following a laparotomy. Each monkey received only one dose of compound.

SMILES: CC(C)[C@@H](O)C(F)(F)[C@H](O)[C@H](CC1CCCCC1)NC(=O)[C@H](Cc1cscn1)NC(=O)[C@@H](CC(=O)N(C)CCn1cccn1)Cc1ccccc1 [Example 105, (2R)-2-Benzyl-3-[(2-pyrazol-1-ylethyl)methylaminocarbonyl]propionic acid amide of L-(4-thiazolyl)alanine-2(S)-amino-1-cyclohexyl-4,4-difluoro-3(R),5(R)-dihydroxy-6-methylheptane]
- IC50 (human renal renin): 0.35 nM
- MBP (Mean blood pressure) ([1]; Monkey A, Time 0 min): 85 mm Hg
- MBP (Mean blood pressure) ([1]; Monkey A, Time 5 min): 85 mm Hg
- MBP (Mean blood pressure) ([1]; Monkey A, Time 10 min): 74 mm Hg
- MBP (Mean blood pressure) ([1]; Monkey A, Time 15 min): 69 mm Hg
- MBP (Mean blood pressure) ([1]; Monkey A, Time 20 min): 65 mm Hg
- MBP (Mean blood pressure) ([1]; Monkey A, Time 25 min): 67 mm Hg
- MBP (Mean blood pressure) ([1]; Monkey A, Time 30 min): 70 mm Hg
- MBP (Mean blood pressure) ([1]; Monkey A, Time 35 min): 71 mm Hg
- MBP (Mean blood pressure) ([1]; Monkey A, Time 40 min): 74 mm Hg
- MBP (Mean blood pressure) ([1]; Monkey A, Time 45 min): 74 mm Hg
- MBP (Mean blood pressure) ([1]; Monkey A, Time 50 min): 76 mm Hg
- MBP (Mean blood pressure) ([1]; Monkey A, Time 55 min): 77 mm Hg
- MBP (Mean blood pressure) ([1]; Monkey A, Time 60 min): 79 mm Hg
- MBP (Mean blood pressure) ([1]; Monkey A, Time 65 min): 79 mm Hg
- MBP (Mean blood pressure) ([1]; Monkey A, Time 70 min): 79 mm Hg
- MBP (Mean blood pressure) ([1]; Monkey A, Time 75 min): 80 mm Hg
- MBP (Mean blood pressure) ([1]; Monkey A, Time 80 min): 79 mm Hg
- MBP (Mean blood pressure) ([1]; Monkey A, Time 85 min): 80 mm Hg
- MBP (Mean blood pressure) ([1]; Monkey A, Time 90 min): 80 mm Hg
- MBP (Mean blood pressure) ([1]; Monkey A, Time 95 min): 81 mm Hg
- MBP (Mean blood pressure) ([1]; Monkey A, Time 100 min): 82 mm Hg
- MBP (Mean blood pressure) ([1]; Monkey A, Time 105 min): 83 mm Hg
- MBP (Mean blood pressure) ([1]; Monkey A, Time 109 min): 81 mm Hg
- MBP (Mean blood pressure) ([1]; Monkey A, Time 114 min): 81 mm Hg
- MBP (Mean blood pressure) ([1]; Monkey A, Time 119 min): 81 mm Hg
- MBP (Mean blood pressure) ([1]; Monkey B, Time 0 min): 89 mm Hg
- MBP (Mean blood pressure) ([1]; Monkey B, Time 5 min): 88 mm Hg
- MBP (Mean blood pressure) ([1]; Monkey B, Time 10 min): 76 mm Hg
- MBP (Mean blood pressure) ([1]; Monkey B, Time 15 min): 79 mm Hg
- MBP (Mean blood pressure) ([1]; Monkey B, Time 20 min): 75 mm Hg
- MBP (Mean blood pressure) ([1]; Monkey B, Time 25 min): 74 mm Hg
- MBP (Mean blood pressure) ([1]; Monkey B, Time 30 min): 75 mm Hg
- MBP (Mean blood pressure) ([1]; Monkey B, Time 35 min): 78 mm Hg
- MBP (Mean blood pressure) ([1]; Monkey B, Time 40 min): 83 mm Hg
- MBP (Mean blood pressure) ([1]; Monkey B, Time 44 min): 83 mm Hg
- MBP (Mean blood pressure) ([1]; Monkey B, Time 49 min): 82 mm Hg
- MBP (Mean blood pressure) ([1]; Monkey B, Time 54 min): 83 mm Hg
- MBP (Mean blood pressure) ([1]; Monkey B, Time 59 min): 86 mm Hg
- MBP (Mean blood pressure) ([1]; Monkey B, Time 64 min): 83 mm Hg
- MBP (Mean blood pressure) ([1]; Monkey B, Time 69 min): 86 mm Hg
- MBP (Mean blood pressure) ([1]; Monkey B, Time 74 min): 87 mm Hg
- MBP (Mean blood pressure) ([1]; Monkey B, Time 79 min): 89 mm Hg
- MBP (Mean blood pressure) ([1]; Monkey B, Time 84 min): 87 mm Hg
- MBP (Mean blood pressure) ([1]; Monkey B, Time 89 min): 92 mm Hg
- MBP (Mean blood pressure) ([1]; Monkey B, Time 94 min): 86 mm Hg
- MBP (Mean blood pressure) ([1]; Monkey B, Time 99 min): 90 mm Hg
- MBP (Mean blood pressure) ([1]; Monkey B, Time 104 min): 91 mm Hg
- MBP (Mean blood pressure) ([1]; Monkey B, Time 109 min): 90 mm Hg
- MBP (Mean blood pressure) ([1]; Monkey B, Time 114 min): 92 mm Hg
- MBP (Mean blood pressure) ([1]; Monkey B, Time 119 min): 92 mm Hg
